{"source": "patent US6265423A", "about": "“Aromatic polycyclic retinoid-type derivatives, method for preparing same, and use thereof for making pharmaceutical and cosmetic compositions” (priority 1996, dated 2001)", "key": {"RARγ-ERcassette": {"system": "RARγ-ERcassette", "experiment": "Transactivation, chimerical receptor RARγ-ERcassette (HeLa)", "type": "cell-based", "conditions": "TTNPB 10^-8 M = 100", "outline": "(§1)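 Read-out: ERE-driven luciferase in HeLa cells, normalised to a co-transfected CMV-β-galactosidase control. Receptor is RAR with its C domain swapped for the oestrogen receptor DNA-binding domain, keeping AF-1/AF-2 cooperation. Effector exposure 16 h, beginning 24 h post-transfection.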"}, "[1]": {"system": "ZR-75-1 human mammary cancer cells", "experiment": "MTT test, proliferation of ZR-75-1", "type": "cell-based", "conditions": "for activity at 100 µM / activity at 1 µM / activity at 0.01 µM: Homo sapiens, 72 h, control = 100%, read-out: level of proliferation; for activity at 100 µM: ZR-75-1, 10^-4 M; for activity at 1 µM: ZR-75-1, 10^-6 M; for activity at 0.01 µM: ZR-75-1, 10^-8 M; for effect on cellular increase, ZR-75-1 (in words): MTT test", "outline": "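Cells grown at 37° C in MEM/5% FCS were plated for 24 h, then treated at 10^-8, 10^-6 or 10^-4 M. Each condition was run in 6 duplicates.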"}, "[2]": {"system": "ZR-75-1, T-47D, A549 and A-427 lineages", "experiment": "MTT test, tumour cell lines overall", "type": "cell-based, human", "procedure": "This test is based on the mitochondrial reduction by living metabolically active cells of the MTT (3-(4,5-dimethylthiazol-2-yl)-2,5-diphenyltetrazolium bromide) of yellowish colour into a blue coloured product, formazan. The quantity of formazan obtained is directly proportional to the number of living cells. After incubation of the cells for 24 hours in microplates with 96 flat bottomed wells, the culture medium is replaced by 100 μl of fresh culture medium containing the drug to be tested.\nThe microplates are then incubated for 3 hours at 37° C. and centrifuged for 10 minutes at 400 g (GPR centrifuge, Beckman). The MTT solution is replaced by 100 μl of dimethylsulphoxide (Merck). The microplates are agitated (Vari-Shaker, Dynatech) for 10 minutes.\nIn the microplates, the control cells like the treated cells were incubated in a medium without the compounds to be tested for 24 hours. The control cells are incubated in a medium without a drug throughout the whole experiment, while the treated cells are incubated in different media. These media contain the molecule to be tested at various concentrations: 10^-8 M, 10^-6 M and 10^-4 M. All the tests are carried out in 6 duplicates."}, "[3]": {"system": "RARE, endogenic RAR and RXR receptors, HRL+N lineage", "experiment": "HRL+N transactivation (RARE-luciferase, stably transfected HeLa)", "type": "cell-based", "protocol": "MCF-7 cells and HeLa are cultivated in DMFM with phenol red to which 5% foetal calf serum is added. The T47-D cells are cultivated in RPMI to which 10% foetal calf serum is added. The experimental tests are carried out in DMEM without phenol red to which foetal calf serum treated with dextran carbon is added at 3%. […] The experiments using the different retinoids are carried out sheltered from the light so as to avoid any isomerisation.\nCertain properties of the retinoids have been determined using more developed cellular models. These models consist of cellular lineages transfected in a stable fashion by recombinant plasmids which place the expression of the gene of the luciferase under the control of different nuclear response elements. […] The tests carried out in duplicate are described below for each of these models.\nThe cellular lineages HRLN and HRL+N allow one to study the activation of an RARE by endogenic receptors using ligands at physiological concentrations. These lineages derive from HeLa cells transfected in a stable fashion by a reporter gene which places the expression of the gene of the luciferase under the control of a nuclear response element RARE (RARE3 -tk-Luc). The HeLa cells express all the known receptors of the retinoic acid (RARα,β,γ and RXRα,β,γ) with a predominance of RARα and RXRα. The response element RARE used for the HRLN cells corresponds to the sequence of the natural gene of the RARβ receptor (GGTTCAnnnnnAGTTCA). The HRL+N cells comprise the sequence GAGTGAnnnnnCGGTGA.\nThe HRL+N lineage allows one to visualise a co-activation of the RAR and RXR receptors at the level of the RAR-RXR hetero-dimer."}, "RARα-ERcassette": {"system": "RARα-ERcassette", "experiment": "Transactivation, chimerical receptor RARα-ERcassette (HeLa)", "type": "cell-based", "conditions": "TTNPB 10^-8 M = 100", "outline": "as §1"}, "Gal4-RARβ": {"system": "Gal4-RARβ", "experiment": "Transactivation, chimerical receptor Gal4-RARβ (transitory transfection of HeLa)", "type": "cell-based", "conditions": "10^-6 M; 100% = TTNPB 10^-8 M"}, "RAR and RXR receptors": {"system": "RAR and RXR receptors", "experiment": "RAR/RXR activity profile drawn from the models", "type": "cell-based"}}, "note": "Entries after “also recorded” stand apart in the source; their conditions may differ.", "data": [{"smiles": "C/C(=C\\c1ccc(C(=O)O)cc1)c1ccc2c(c1)C(C)(C)CCC2(C)C", "note": "[TTNPB, reference compound]", "values": [{"measurement": "RAR-ERcassette RARγ transactivation", "setting": "RARγ-ERcassette; 10^-9 M", "result": 66, "unit": "%"}, {"measurement": "activity at 100 µM", "setting": "[1]", "result": 15.7, "unit": "%"}, {"measurement": "activity at 1 µM", "setting": "[1]", "result": 69.8, "unit": "%"}, {"measurement": "activity at 0.01 µM", "setting": "[1]", "result": 60.6, "unit": "%"}, {"measurement": "effect on cellular increase, ZR-75-1 (in words)", "setting": "[1]", "result": "inhibit the cellular increase of the two mammary lineages at the concentrations tested"}, {"measurement": "inhibition of the cellular lineages (in words)", "setting": "[2]", "result": "induces the strongest inhibition of the cellular lineages"}]}, {"smiles": "C/C(=C/c1ccc2c(c1)C(C)(C)CCC2(C)C)c1ccc(-c2nnn[nH]2)cc1", "note": "[CB92834]", "values": [{"measurement": "HRL+N transactivation (in words)", "setting": "[3]", "result": "weak transactivation, less than that of TTNPB; also recorded: with a specific RAR agonist induces a stronger transactivation than that observed for each compound tested separately; also recorded: over-activation by CB92834 of the transactivation induced by a selective RAR agonist on the HRL+N lineage"}, {"measurement": "Emax", "setting": "[3]; Homo sapiens, HeLa, read-out: HRL+N transactivation, E max (Table 27)", "result": 42, "unit": "%"}, {"measurement": "RAR-ERcassette RARα transactivation", "setting": "RARα-ERcassette; 10^-6 M", "result": 11, "unit": "%"}, {"measurement": "RAR-ERcassette RARα transactivation", "setting": "RARα-ERcassette; 10^-7 M", "result": 9, "unit": "%"}, {"measurement": "RAR-ERcassette RARα transactivation", "setting": "RARα-ERcassette; 10^-8 M", "result": 0, "unit": "%"}, {"measurement": "RAR-ERcassette RARγ transactivation", "setting": "RARγ-ERcassette; 10^-6 M", "result": 0, "unit": "%"}, {"measurement": "RAR-ERcassette RARγ transactivation", "setting": "RARγ-ERcassette; 10^-7 M", "result": 7, "unit": "%"}, {"measurement": "RAR-ERcassette RARγ transactivation", "setting": "RARγ-ERcassette; 10^-8 M", "result": 2, "unit": "%"}, {"measurement": "activity at 100 µM", "setting": "[1]", "result": 18.7, "unit": "%"}, {"measurement": "activity at 1 µM", "setting": "[1]", "result": 39.9, "unit": "%"}, {"measurement": "activity at 0.01 µM", "setting": "[1]", "result": 27.9, "unit": "%"}, {"measurement": "effect on cellular increase, ZR-75-1 (in words)", "setting": "[1]", "result": "strongly inhibitive activity on the cellular increase of the two lineages"}, {"measurement": "inhibition of the cellular lineages (in words)", "setting": "[2]", "result": "as active on the MTT test as the reference products tested; also recorded: more active on the oestrogen-sensitive lineages such as the mammary lineages ZR-75-1 and T-47D than on the pulmonary lineages"}, {"measurement": "GAL4-RAR RARβ transactivation", "setting": "Gal4-RARβ", "result": 0, "unit": "%"}, {"measurement": "RAR/RXR activity profile (in words)", "setting": "RAR and RXR receptors", "result": "RXR specific activity"}]}]}
